Laboratory results reported in patent US11154515B2, “Pharmaceutical compositions comprising cannabidiol and beta-caryophyllene and methods for their use” (priority 2017, dated 2021).

How the values were obtained:
[1] = test system: OXA-induced ear edema, ACD mouse model; assay: Oxazolone-induced allergic contact dermatitis model, ear edema; format: in vivo
Experimental: Prednisolone was solved in 1:1 of DMSO/saline and was administered topically (15-15 μL to the inner and outer surface of the ears). All other test compounds were solved in 96% ethanol. All solutions of all the concentrations were prepared freshly on the first day of every experiment and were stored at 4° C., then shaken properly before the treatments.
Anesthesia was induced by ketamine (Richter Gedeon, Budapest, Hungary) (100 mg/kg i.p., repeated as required) with xylazine (Lavet Ltd., Budapest, Hungary) (5 mg/kg i.m.). Animals were sensitized on two consecutive days by painting 2% oxazolone (50-50 μL, Merck KGaA) on the shaved abdomen. On the 6th day the right ears were smeared with 2% oxazolone (OXA) dissolved in 96% ethanol: 15-15 μL solution was applied on each of the inner and outer surfaces. Control ears were treated with 96% ethanol in the same way. Drug-treated groups were treated with 15-15 μL of drug solution smeared to the inner and outer side of the ears every 4 hrs of the experiment after oxazolone treatment. A schematic of the experimental protocol is provided in FIG. 24 and the experimental groups are defined below. • (a) Group 1: Ethanol-treated Controls: left ear: 96% ethanol, right ear: 2% oxazolone • (b) Group 2: 1 μM CBD • (c) Group 3: 10 μM CBD • (d) Group 4: 1 μM HU101 • (e) Group 5: 10 μMHU101
Ear thickness was measured with an engineer's micrometer, with 0.1 mm accuracy, before challenge with test agents and after the challenge at different time points. Data are expressed as % increase of ear thickness compared to the initial values.
Results are expressed as mean±SEM. Comparisons between different treatment groups were performed using two-way ANOVA followed by Sidak's post hoc test for skin thickness and one-way ANOVA followed by Bonferroni's post hoc test for MPO and vascular leakage. * p<0.05 was considered to be significant.

[2] = test system: pro-inflammatory cytokine expression (IL-1α, IL-1β, IL-6, IL-8, TNFα) in HaCaT keratinocytes; assay: Inflammatory epidermal keratinocyte models (SDS, Nickel, Carvacrol, SLIGRL, UVB, Poly p(I:C), SEB/TSLP), cytokine RT-qPCR; format: cell-based, human; settings: seven keratinocyte inflammation models

Structure (SMILES)	efficacy relative to the efficacy of prednisolone ([1]; 1 μM topical, depending on the time-point)	Effect in ACD mouse model, significance of ear edema difference ([1]; OXA + CBD 10 μM vs. OXA + HUF101 1 μM, 24 h)	Effect in ACD mouse model, significance of ear edema difference ([1]; OXA + CBD 10 μM vs. OXA + HUF101 1 μM, 48 h)	Effect in ACD mouse model, significance of ear edema difference ([1]; OXA + CBD 10 μM vs. OXA + HUF101 1 μM, 56 h)	Effect in ACD mouse model, significance of ear edema difference ([1]; OXA + CBD 10 μM vs. OXA + HUF101 10 μM, 48 h)	Effect in ACD mouse model, significance of ear edema difference ([1]; OXA + CBD 10 μM vs. OXA + HUF101 10 μM, 56 h)	Effect in ACD mouse model, significance of ear edema difference ([1]; OXA vs. OXA + HUF101 1 μM, 24 h)	Effect in ACD mouse model, significance of ear edema difference ([1]; OXA vs. OXA + HUF101 1 μM, 48 h)	Effect in ACD mouse model, significance of ear edema difference ([1]; OXA vs. OXA + HUF101 1 μM, 56 h)	Effect in ACD mouse model, significance of ear edema difference ([1]; OXA vs. OXA + HUF101 10 μM, 24 h)	Effect in ACD mouse model, significance of ear edema difference ([1]; OXA vs. OXA + HUF101 10 μM, 48 h)	Effect in ACD mouse model, significance of ear edema difference ([1]; OXA vs. OXA + HUF101 10 μM, 56 h)	anti-inflammatory actions on OXA-induced edema ([1]; both doses (1 μM and 10 μM), topical, all time-points)	effects compared with 1 μM or 10 μM CBD ([1]; both doses, statistically significant compared to 10 μM CBD)	efficacy of 1 μM compared with 10 μM ([1]; topical)	rank order of efficacy among the F-CBDs [2]	reduction in OXA-induced edema formation ([1]; positive control, topical)
C=C(C)[C@@H]1CCC(C)=C[C@H]1c1c(O)cc(CCCCC)c(F)c1O [HUF101]	40-60%	** (** p ≤ 0.01)	*** (*** p ≤ 0.001)	*** (*** p ≤ 0.001)	** (** p ≤ 0.01)	*** (*** p ≤ 0.001)	*** (*** p ≤ 0.001)	*** (*** p ≤ 0.001)	*** (*** p ≤ 0.001)	*** (*** p ≤ 0.001)	*** (*** p ≤ 0.001)	* (* p ≤ 0.05)	statistically significant anti-inflammatory actions at all time-points	more robust effects	somewhat higher	HUF103>HU559a>HUF101	–
C[C@]12C=CC(=O)C=C1CC[C@@H]1[C@@H]2[C@@H](O)C[C@@]2(C)[C@H]1CC[C@]2(O)C(=O)CO [Prednisolone, reference compound]	–	–	–	–	–	–	–	–	–	–	–	–	–	–	–	–	most robust reduction
